Assay results as given in ChEMBL document CHEMBL3352048, “Development of 2-(4-oxoquinazolin-3(4H)-yl)acetamide derivatives as novel enoyl-acyl carrier protein reductase (InhA) inhibitors for the treatment of tuberculosis” (Eur J Med Chem, 2014).

Tested on: Mycobacterium tuberculosis
Test: Antimycobacterial activity against isoniazid, rifampicin, ofloxacin and kanamycin-resistant Mycobacterium tuberculosis H37Rv ATCC 27294 clinical isolate after 28 days by two-fold serial dilution assay in presence of […] piperine efflux pump inhibitor
Type: functional
Conditions: H37Rv ATCC 27294, 672 h

Row | Structure (SMILES) | MIC [µM]
1 | O=C(Cn1cnc2ccccc2c1=O)NCc1cccs1 | 20.9
2 | O=C(Cn1cnc2ccccc2c1=O)NCc1ccco1 | 11
3 | O=C(Cn1cnc2ccccc2c1=O)Nc1ccccc1 | 22.4
4 | O=C(Cn1cnc2ccc(Cl)cc2c1=O)Nc1ccccc1 | 39.8
5 | O=C(Cn1cnc2ccccc2c1=O)Nc1cc(C(F)(F)F)ccc1Cl | 8.18
6 | O=C(Cn1cnc2ccc(Cl)cc2c1=O)Nc1cc(C(F)(F)F)ccc1Cl | 60.1
7 | O=C(Cn1cnc2ccc(Cl)cc2c1=O)NCc1ccco1 | 39.3
8 | O=C(Cn1cnc2ccc(Cl)cc2c1=O)NCc1cccs1 | 37.4
9 | Cc1nc2ccc(Cl)cc2c(=O)n1CC(=O)Nc1ccccc1 | 19.1
10 | Cc1nc2ccc(Cl)cc2c(=O)n1CC(=O)NCc1ccco1 | 18.8
11 | Cc1nc2ccccc2c(=O)n1CC(=O)NCc1cccs1 | 19.9
12 | O=C(Cn1cnc2ccccc2c1=O)NCc1nc2ccc([N+](=O)[O-])cc2s1 | 4.09
13 | CC[C@@H](CO)NCCN[C@@H](CC)CO [ETHAMBUTOL] | 245
14 | NNC(=O)c1ccncc1 [ISONIAZID] | 45.6
15 | CO[C@H]1/C=C/O[C@@]2(C)Oc3c(C)c(O)c4c(O)c(c(/C=N/N5CCN(C)CC5)c(O)c4c3C2=O)NC(=O)/C(C)=C\C=C\[C@H](C)[C@H](O)[C@@H](C)[C@@H](O)[C@@H](C)[C@H](OC(C)=O)[C@@H]1C [RIFAMPIN] | 30.4
